Assay results taken from paper PMC10489073 (Molecules, 2023).

Key:
Hela = assay: Cell proliferation analysis (MTT); assay type: cell-based; conditions: Homo sapiens, 48 h, read-out: Anti-proliferative activity IC50, Hela
Protocol: (§1) All tumor cell lines in the current research were grown in a certain growth medium containing 10% FBS and 1% (v/v/v) penicillin–streptomycin–amphotericin at 37 °C in 5% CO2. Cells were seeded into 96-well plates at a density of 8 × 10^3 cells per well for tumor adherent cells and 2 × 10^4 cells per well for tumor-suspended cells in a final volume of 100 μL. After 12 h, 100 μL of various concentrations of compounds was added to each and incubated for 48 h. A 0.5% MTT solution was added per well before the intermixture was incubated for another 4 h, and formazan formed from MTT was extracted by adding […] of DMSO rocking for 15 min. Absorbance was measured at 570 nm using a Spark multimode microplate from Tecan. The IC50 values were calculated according to the inhibition ratios.

MM.1S = assay: Cell proliferation analysis (MTT); assay type: cell-based; conditions: Homo sapiens, MM1.S, 48 h, read-out: Anti-proliferative activity IC50, MM.1S
Protocol: as §1

KG1 = assay: Cell proliferation analysis (MTT); assay type: cell-based; conditions: Homo sapiens, KG-1, 48 h, read-out: Anti-proliferative activity IC50, KG1
Protocol: as §1

A2780 = assay: Cell proliferation analysis (MTT); assay type: cell-based; conditions: Homo sapiens, 48 h, read-out: Anti-proliferative activity IC50, A2780
Protocol: as §1

PC3 = assay: Cell proliferation analysis (MTT); assay type: cell-based; conditions: Homo sapiens, PC-3, 48 h, read-out: Anti-proliferative activity IC50, PC3
Protocol: as §1

MDA-MB-231 = assay: Cell proliferation analysis (MTT); assay type: cell-based; conditions: Homo sapiens, 48 h, read-out: Anti-proliferative activity IC50, MDA-MB-231
Protocol: as §1

HEL = assay: Cell proliferation analysis (MTT); assay type: cell-based; conditions: Homo sapiens, 48 h, read-out: Anti-proliferative activity IC50, HEL
Protocol: as §1

HCT116 = assay: Cell proliferation analysis (MTT); assay type: cell-based; conditions: Homo sapiens, HCT-116, 48 h, read-out: Anti-proliferative activity IC50, HCT116
Protocol: as §1

U266 = assay: Cell proliferation analysis (MTT); assay type: cell-based; conditions: Homo sapiens, U-266, 48 h, read-out: Anti-proliferative activity IC50, U266
Protocol: as §1

RPMI-8266 = assay: Cell proliferation analysis (MTT); assay type: cell-based; conditions: RPMI8266, 48 h, read-out: Anti-proliferative activity IC50, RPMI-8266
Protocol: as §1

SP2 = assay: Cell proliferation analysis (MTT); assay type: cell-based; conditions: 48 h, read-out: Anti-proliferative activity IC50, SP2
Protocol: as §1

ARP-1 = assay: Cell proliferation analysis (MTT); assay type: cell-based; conditions: 48 h, read-out: Anti-proliferative activity IC50, ARP-1
Protocol: as §1

U251 = assay: Cell proliferation analysis (MTT); assay type: cell-based; conditions: Homo sapiens, U-251, 48 h, read-out: Anti-proliferative activity IC50, U251
Protocol: as §1

HT-29 = assay: Cell proliferation analysis (MTT); assay type: cell-based; conditions: Homo sapiens, 48 h, read-out: Anti-proliferative activity IC50, HT-29
Protocol: as §1

[1] = high concentrations up to 1 mM; cited from earlier work
[2] = test system: subcutaneous P3x63Ag8.653 tumor; assay: In vivo P3x63Ag8.653 tumor transplant model; parameters: species or system mice; conditions: 0.05 mmol/kg oral, two weeks
Protocol: The animal experiments were conducted under the guidelines of the “Regulations for the Administration of Affairs Concerning Experimental Animals” (revised 2017, State Council No. 676). For the P3x63Ag8.653 tumor development, male mice were subcutaneously injected with 200 μL murine P3x63Ag8.653 cells with a density of 1 × 10^7/mL. On the eighth day after injection, the transplanted mice were randomized into treatment and control groups. The tested compounds were administrated orally at the prescribed dose biweekly for two weeks. After two weeks of administration, mice were executed, and the tumor tissues were dissected and weighed. T/C was calculated according to the following formula: T/C = the mean RTV of the treated group/the mean RTV of the control group, where RTV is the relative tumor volume = Vt/V0 (Vt, the tumor volume measured at the end of treatment; V0, the tumor volume measured at the beginning of treatment).

P3x63Ag8.653 = assay: Cell proliferation analysis (MTT); assay type: cell-based, murine; conditions: Mus musculus, 48 h, read-out: Anti-proliferative activity IC50, P3x63Ag8.653
Protocol: as §1

HEK293 = assay: Cell proliferation analysis (MTT), normal cells; assay type: cell-based; conditions: Homo sapiens, non-malignant cell line, 48 h, read-out: Anti-proliferative activity IC50, HEK293
Protocol: as §1

HL-7702 = assay: Cell proliferation analysis (MTT), normal cells; assay type: cell-based; conditions: Homo sapiens, L02, non-malignant cell line, 48 h, read-out: Anti-proliferative activity IC50, HL-7702
Protocol: as §1

[3] = molecular target: T1, chymotrypsin-like (CT-L) activity of the 20S proteasome (Homo sapiens, UniProt P20618+P28074); assay: 20S proteasome inhibition assay (Proteasome-Glo Chymotrypsin-Like); assay type: biochemical; conditions: n ≥ 3, SD <20% of the mean, read-out: IC50 toward Chymotrypsin-like (CT-L)
T1 construct: purchased R&D systems, Minneapolis, MN, USA
Protocol: The 20S proteasome inhibition assay was performed using the Proteasome-Glo™ Chymotrypsin-Like Assay kit (Promega, Alexandria, NSW, Australia). Suc-LLVY-aminoluciferin is a substate that can be cleaved by the 20S proteasome, release the […] (aminoluciferin) and allow the luciferase reaction to produce light. Gradient concentration of tested compounds and the purified 20S proteasome enzyme (R&D systems, Minneapolis, MN, USA) were successively added into a transparent 96-well plate and mixed thoroughly. Then, 50 µL of a […] reagent was added. Gently mix contents with a plate shaker at 300 to 500 rpm for 30 s. Incubate at room temperature for an hour. The luminescence was recorded via the Tecan Spark multimode microplate.

IC50 (Hela): > 200 µM
IC50 (MM.1S): > 200 µM
IC50 (A2780): > 200 µM
IC50 (PC3): > 200 µM
IC50 (MDA-MB-231): > 200 µM
IC50 (HCT116): > 200 µM
IC50 (U266): > 200 µM
IC50 (U251): > 200 µM
IC50 (HT-29): > 200 µM
IC50 [3]: > 10 µM
Structure (SMILES): CC(C)C[C@H](NC(=O)[C@@H](O)[C@H](N)Cc1ccccc1)C(=O)O [Ubenimex]
IC50 (KG1): > 200 µM
IC50 (HEL): > 200 µM
IC50 (RPMI-8266): > 200 µM
IC50 (SP2): > 200 µM
IC50 (ARP-1): > 200 µM
anti-proliferation activity [1]: not apparent
anti-tumor activity [2]: moderate anti-tumor activity
IC50 (P3x63Ag8.653): > 200 µM
IC50 (HEK293): > 200 µM
IC50 (HL-7702): > 200 µM
